Measurements from patent publication US11530206B2, “Phenylaminopyrimidine amide autophagy inhibitors and methods of use thereof” (Deciphera Pharmaceuticals, LLC, priority 2019, dated 2022).

Legend:
[1] = biological target: T1, LRRK2 kinase (Homo sapiens, UniProt Q5S007); assay: Biochemical assay for LRRK2 (coupled pyruvate kinase/lactate dehydrogenase assay); settings: 26.4 nM LRRK2 (residues 970-2528), peptide substrate, 1 mM ATP
T1 construct: purchased Thermo Fisher
Protocol: Example 138. Biochemical Assay for LRRK2 (SEQ. ID NO: 4)
Activity of LRRK2 kinase was determined spectroscopically using a coupled pyruvate kinase/lactate dehydrogenase assay that continuously monitors the ATP hydrolysis-dependent oxidation of NADH (e.g., Schindler et al. Science (2000) 289: 1938-1942). Assays were conducted in 384-well plates (100 μL final volume) using 26.4 nM LRRK2 (Thermo Fisher), 0.1 mM peptide substrate ([…] (SEQ ID NO: 6)), 1.5 units pyruvate kinase, 2.1 units lactate dehydrogenase, 1 mM phosphoenol pyruvate, 0.28 mM NADH and 1 mM ATP in assay buffer (100 mM Tris, pH 7.5, 15 mM MgCl2, 0.5 mM DTT, 0.004% (w/v) BSA, and 0.004% Triton X-100). Inhibition of LRRK2 was measured by adding serial diluted test compound (final assay concentration of 1% DMSO). A decrease in absorption at 340 nm was monitored continuously for 6 hours at 30° C. on a multi-mode microplate reader (BioTek). The reaction rate was calculated using the 2-3 h time frame. The reaction rate at each concentration of compound was converted to percent inhibition using controls (i.e. reaction with no test compound and reaction with a known inhibitor) and IC50 values were calculated using software routines in Prism (GraphPad software).

[2] = biological target: T2, ULK1 kinase (Homo sapiens, UniProt O75385); assay: Biochemical assay for ULK1.2 (coupled pyruvate kinase/lactate dehydrogenase assay); settings: 19 nM ULK1 (residues 1-314, His tag), myelin basic protein, 1 mM ATP
T2 construct: purchased Eurofins 14-959
T2 sequence (O75385 with tags, fused parts or gaps): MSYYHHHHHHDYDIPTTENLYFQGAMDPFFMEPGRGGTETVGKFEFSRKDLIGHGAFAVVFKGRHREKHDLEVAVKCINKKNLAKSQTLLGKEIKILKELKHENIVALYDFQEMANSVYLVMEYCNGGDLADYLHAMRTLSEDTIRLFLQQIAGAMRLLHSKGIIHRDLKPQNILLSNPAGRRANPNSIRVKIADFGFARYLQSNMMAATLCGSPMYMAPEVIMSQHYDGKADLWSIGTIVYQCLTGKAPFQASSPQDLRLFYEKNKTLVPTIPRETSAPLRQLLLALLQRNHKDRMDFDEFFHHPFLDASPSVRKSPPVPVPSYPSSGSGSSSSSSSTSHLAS
Protocol: Biochemical Assay for ULK1.2 (SEQ. ID NO: 1)
Inhibition of ULK1 was measured by adding serial diluted test compound (final assay concentration of 1% DMSO). A decrease in absorption at 340 nm was monitored continuously for 6 hours at 30° C. on a multi-mode microplate reader (BioTek). The reaction rate was calculated using the 2-3 h time frame. The reaction rate at each concentration of compound was converted to percent inhibition using controls (i.e. reaction with no test compound and reaction with a known inhibitor) and IC50 values were calculated by fitting a four-parameter sigmoidal curve to the data using Prism (GraphPad software).

[3] = system: ULK kinase; assay: pATG13 levels of mutant KRas MiaPaCa-2 cells after treatment with ULK inhibitors in combination with trametinib (ELISA); type: cell-based, human; settings: MiaPaCa-2 pancreatic cancer cells, 250 nM trametinib, overnight, pS318-ATG13
Protocol: (§1) MiaPaCa-2 human pancreatic cancer cells (10000 cells/well) were added to a 384-well tissue-culture treated plate in 50 μL of pre-warmed DMEM medium supplemented with 10% characterized fetal bovine serum (Invitrogen, Carlsbad, Calif.), 100 units/mL penicillin G, 100 µg/mL streptomycin, and 2.5% Horse Serum and allowed to grow overnight at 37° C., 5% CO2, and 95% humidity. The following day, 10 μL of media containing trametinib or DMSO as a control was added to wells. […] A dose response of a test compound (0.6 μL per well) was added. DMSO (0.6 μL) was added to control wells. The plate was briefly shaken to mix wells and then incubated at 37° C. overnight. The next day, the media was aspirated and cells were washed with Dulbecco's Phosphate Buffered Saline (Gibco). Cells were lysed using MPER lysis buffer (Pierce, Rockford, Ill.) containing Halt Phosphatase and Protease Inhibitors (Pierce, Rockford, Ill.) and Phosphatase inhibitor cocktail 2 (Sigma, St. Louis, Mo.) at 4° C. for 10 minutes with shaking.
(§2) Plate wells were washed with ELISA wash buffer. Cell lysate was added to wells and incubated at room temperature for 2 hours. Plate wells were washed with ELISA wash buffer. […] Plate wells were washed with ELISA wash buffer. […] Plate wells were washed with ELISA wash buffer. […] The reaction was stopped with 2N Sulfuric Acid. The plate was analyzed at on a plate reader measuring absorbance at 450 nm and 540 nm (background). Signal was calculated by first subtracting the background absorbance at 540 nm from the absorbance at 450 nm for each well. Next, the background corrected absorbance at 450 nm from blank wells was subtracted from test wells. Data was compared to control wells to determine % ATG13 phosphorylation. GraphPad Prism was used to calculate IC50 values.

[4] = system: ULK kinase; assay: pATG13 levels of mutant KRas A549 cells after treatment with ULK inhibitors in combination with trametinib (ELISA); type: cell-based, human; settings: A549 (KRAS mutant) lung cancer cells, 250 nM trametinib, overnight, pS318-ATG13
Protocol: Cellular Inhibition of ULK Kinase Substrate ATG13 Protein pATG13 Levels of Mutant KRas A549 Cells after Treatment with ULK Inhibitors in Combination with Trametinib
as §1, with “A549 (KRAS mutant)” for “MiaPaCa-2”, “lung” for “pancreatic”, “(6,000” for “(10000”, “G, and” for “G,”, “μg/mL streptomycin” for “µg/mL streptomycin, and 2.5% Horse Serum”
as §2

[5] = biological target: T3, ULK1 kinase (Homo sapiens, UniProt O75385, E37A/K38A); assay: Biochemical assay for ULK1.3 (coupled pyruvate kinase/lactate dehydrogenase assay, peptide substrate); settings: 0.1 nM ULK1 (residues 1-283), 1 mM ATP
T3 construct: purchased Beryllium
T3 sequence (O75385 1-283 E37A/K38A): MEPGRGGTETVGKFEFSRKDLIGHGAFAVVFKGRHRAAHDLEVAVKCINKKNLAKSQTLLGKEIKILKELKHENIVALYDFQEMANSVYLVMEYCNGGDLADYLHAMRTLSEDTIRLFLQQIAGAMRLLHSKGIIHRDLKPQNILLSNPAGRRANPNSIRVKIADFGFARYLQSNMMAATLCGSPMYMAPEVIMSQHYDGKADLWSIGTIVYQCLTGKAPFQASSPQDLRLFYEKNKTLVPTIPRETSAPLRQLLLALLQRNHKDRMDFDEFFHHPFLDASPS
Protocol: Biochemical Assay for ULK1.3 (SEQ. ID NO: 2)
Inhibition of ULK1 was measured by adding serial diluted test compound (final assay concentration of 1% DMSO). A decrease in absorption at 340 nm was monitored continuously for 6 hours at 30° C. on a multi-mode microplate reader (BioTek). The reaction rate was calculated using the 2-3 h time frame. The reaction rate at each concentration of compound was converted to percent inhibition using controls (i.e. reaction with no test compound and reaction with a known inhibitor) and IC50 values were calculated using software routines in Prism (GraphPad software).

T1 sequence (Q5S007 with tags, fused parts or gaps): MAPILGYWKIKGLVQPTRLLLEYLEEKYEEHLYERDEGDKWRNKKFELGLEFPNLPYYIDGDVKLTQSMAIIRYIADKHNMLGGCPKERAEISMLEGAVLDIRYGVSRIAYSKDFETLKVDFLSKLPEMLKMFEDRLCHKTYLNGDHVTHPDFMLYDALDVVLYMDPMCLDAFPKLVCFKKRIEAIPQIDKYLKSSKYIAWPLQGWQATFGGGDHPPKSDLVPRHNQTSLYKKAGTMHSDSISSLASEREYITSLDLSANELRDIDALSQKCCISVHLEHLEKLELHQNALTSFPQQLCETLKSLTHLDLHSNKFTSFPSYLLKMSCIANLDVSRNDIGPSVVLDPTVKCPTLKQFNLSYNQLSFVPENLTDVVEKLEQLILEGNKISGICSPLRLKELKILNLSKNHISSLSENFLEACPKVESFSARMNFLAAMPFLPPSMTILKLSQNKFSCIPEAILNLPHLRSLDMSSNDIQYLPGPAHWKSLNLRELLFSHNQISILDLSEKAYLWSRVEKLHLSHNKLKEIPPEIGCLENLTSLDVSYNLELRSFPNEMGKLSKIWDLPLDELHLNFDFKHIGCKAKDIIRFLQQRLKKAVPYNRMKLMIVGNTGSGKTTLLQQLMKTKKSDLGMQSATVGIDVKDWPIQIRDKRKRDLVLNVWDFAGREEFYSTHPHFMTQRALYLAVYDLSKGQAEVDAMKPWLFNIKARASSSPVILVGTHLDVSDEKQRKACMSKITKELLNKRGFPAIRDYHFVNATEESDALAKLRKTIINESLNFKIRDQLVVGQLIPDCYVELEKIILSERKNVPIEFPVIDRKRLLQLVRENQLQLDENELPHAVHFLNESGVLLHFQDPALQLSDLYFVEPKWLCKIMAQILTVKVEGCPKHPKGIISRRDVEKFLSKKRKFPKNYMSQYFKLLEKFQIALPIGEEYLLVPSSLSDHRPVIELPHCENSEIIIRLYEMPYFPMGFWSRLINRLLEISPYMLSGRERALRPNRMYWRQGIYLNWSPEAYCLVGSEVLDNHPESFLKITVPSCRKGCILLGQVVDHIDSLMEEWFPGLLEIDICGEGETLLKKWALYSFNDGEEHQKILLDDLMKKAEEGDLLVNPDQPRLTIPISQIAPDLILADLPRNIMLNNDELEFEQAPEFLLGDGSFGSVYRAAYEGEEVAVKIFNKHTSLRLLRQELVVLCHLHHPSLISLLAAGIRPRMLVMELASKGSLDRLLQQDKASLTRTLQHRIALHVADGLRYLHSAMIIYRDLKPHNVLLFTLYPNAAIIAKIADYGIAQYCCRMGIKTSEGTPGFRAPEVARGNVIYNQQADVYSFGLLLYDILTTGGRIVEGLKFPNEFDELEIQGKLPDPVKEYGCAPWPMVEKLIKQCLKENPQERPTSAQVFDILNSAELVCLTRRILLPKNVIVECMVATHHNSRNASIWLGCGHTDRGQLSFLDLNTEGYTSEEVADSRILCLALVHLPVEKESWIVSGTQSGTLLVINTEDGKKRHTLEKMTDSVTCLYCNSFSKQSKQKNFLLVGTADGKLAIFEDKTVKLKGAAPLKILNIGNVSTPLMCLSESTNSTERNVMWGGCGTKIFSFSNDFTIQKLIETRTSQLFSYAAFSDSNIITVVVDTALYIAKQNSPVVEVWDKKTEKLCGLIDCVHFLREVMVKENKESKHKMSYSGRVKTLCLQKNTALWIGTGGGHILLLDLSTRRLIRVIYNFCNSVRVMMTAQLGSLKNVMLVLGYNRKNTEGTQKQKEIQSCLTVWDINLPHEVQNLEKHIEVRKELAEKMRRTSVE

SMILES	IC50 [1]	IC50 [2]	IC50 [3]	IC50 [4]	IC50 [5]
CC1(C)CCC(=O)N1CCCNc1nc(Nc2ccc(N3CCN(C4CC4)CC3)cc2)ncc1C1CC1 [Example 1]	> 600 nM	> 500 nM			
Cc1cc(N2CCN(C)CC2)ccc1Nc1ncc(C(F)(F)F)c(NCCCN2CCCC2=O)n1 [Example 2]	1 to 100 nM	100 to 500 nM			
Cc1cc(N2CCNCC2)ccc1Nc1ncc(C(F)(F)F)c(NCCCN2CCCC2=O)n1 [Example 3]		100 to 500 nM			
Cc1cc(C2CCNCC2)ccc1Nc1ncc(Cl)c(NCCCN2CCCCC2=O)n1 [Example 5]	100 to 300 nM	> 500 nM			
Cc1cc(C2CCN(C)CC2)ccc1Nc1ncc(Cl)c(NCCCN2CCCCC2=O)n1 [Example 6]		> 500 nM			
Cc1cc(N2CCNCC2)ccc1Nc1ncc(C(F)(F)F)c(NCCCN2CCCCC2=O)n1 [Example 16]		1 to 25 nM	10 to 100 nM	10 to 100 nM	
Cc1cc(N2CCN(C(C)C)CC2)ccc1Nc1ncc(C(F)(F)F)c(NCCCN2CCCCC2=O)n1 [Example 17]		1 to 25 nM			
CN1C[C@@H]2C[C@H]1CN2c1ccc(Nc2ncc(C(F)(F)F)c(NCCCN3CCCOC3=O)n2)c(C2CC2)c1 [Example 117]	1 to 100 nM		10 to 100 nM	100 to 300 nM	25 to 100 nM
CCc1cc(N2C[C@@H]3C[C@H]2CN3C)ccc1Nc1ncc(C(F)(F)F)c(NCCCN2CCOCCC2=O)n1 [Example 119]	100 to 300 nM		10 to 100 nM	100 to 300 nM	1 to 25 nM
CCc1cc(N2C[C@@H]3C[C@H]2CN3C)ccc1Nc1ncc(C(F)(F)F)c(NCCCN2CCCOC2=O)n1 [Example 120]	100 to 300 nM		100 to 300 nM	100 to 300 nM	1 to 25 nM
CCc1cc(N2CCN3CCC[C@H]3C2)ccc1Nc1ncc(C(F)(F)F)c(NCCCN2CCOCCC2=O)n1 [Example 122]	1 to 100 nM		100 to 300 nM	300 to 600 nM	1 to 25 nM
CCc1cc(N2C[C@H]3C[C@@H]2CN3C)ccc1Nc1ncc(C(F)(F)F)c(NCCCN2CCOCCC2=O)n1 [Example 124]	100 to 300 nM		10 to 100 nM	10 to 100 nM	1 to 25 nM
CN1C[C@H]2C[C@@H]1CN2c1ccc(Nc2ncc(C(F)(F)F)c(NCCCN3CCOCCC3=O)n2)c(C2CC2)c1 [Example 125]	1 to 100 nM		10 to 100 nM	10 to 100 nM	1 to 25 nM
CN(C)C1CN(c2ccc(Nc3ncc(C(F)(F)F)c(NCCCN4CCCCC4=O)n3)c(C3CC3)c2)C1 [Example 126]	1 to 100 nM		10 to 100 nM	100 to 300 nM	1 to 25 nM
COCc1cc(N2CCN(C)CC2)ccc1Nc1ncc(C(F)(F)F)c(NCCCN2CCOCCC2=O)n1 [Example 127]	300 to 600 nM		100 to 300 nM	100 to 300 nM	1 to 25 nM
CCc1cc(N2CCN(C)CC2)ccc1Nc1ncc(C#N)c(NCCCN2CCOCCC2=O)n1 [Example 129]	> 600 nM		100 to 300 nM	300 to 600 nM	25 to 100 nM
CN1CCN(c2ccc(Nc3ncc(C(F)(F)F)c(NCCCN4CCOCCC4=O)n3)c(Br)c2)CC1 [Example 131]	100 to 300 nM		300 to 600 nM	100 to 300 nM	1 to 25 nM
CN1CCN(c2ccc(Nc3ncc(C(F)(F)F)c(NCCCN4CCOCCC4=O)n3)c(Cl)c2)CC1 [Example 132]	1 to 100 nM		10 to 100 nM	100 to 300 nM	1 to 25 nM
COCc1cc(N2CCN(C)CC2)ccc1Nc1ncc(C(F)(F)F)c(NCCCN2CCCOC2=O)n1 [Example 147]	300 to 600 nM		100 to 300 nM	100 to 300 nM	1 to 25 nM
CN1CCN(c2ccc(Nc3ncc(C(F)(F)F)c(NCCCN4CCC(C)(C)OC4=O)n3)c(C3CC3)c2)CC1 [Example 148]	100 to 300 nM		10 to 100 nM	10 to 100 nM	1 to 25 nM
